Values of other authors as cited in patent US9849145B2, “Pharmaceutical composition containing honeysuckle extract and antibiotics, pharmaceutical kit, and use of honeysuckle extract for preparation of drug” (priority 2011, dated 2017).

What was measured:
Design in all cases: key: Resistant; Sensitive; Intermediate degree (moderate resistance)
[1] = tested on: Klebsiella pneumoniae; conditions: clinical isolate, specimen 31853, urine; cited from earlier work
[2] = tested on: Staphylococcus aureus; conditions: clinical isolate, specimen Y31692, secretion; cited from earlier work
[3] = tested on: Escherichia coli; conditions: clinical isolate, specimen 32042, urine; cited from earlier work
[4] = tested on: Pseudomona aeruginosa; conditions: clinical isolate, specimen 12; cited from earlier work
[5] = tested on: Klebsiella pneumoniae; conditions: clinical isolate, specimen 31494, sputum; cited from earlier work

Compound | resistance of Klebsiella pneumoniae to the antibiotic [1] | resistance of Staphylococcus aureus to the antibiotic [2] | resistance of Escherichia coli to the antibiotic [3] | resistance of Pseudomona aeruginosa to the antibiotic [4] | drug resistant spectrum of the experimental strain of Klebsiella pneumoniae [5]
NCC[C@H](O)C(=O)N[C@@H]1C[C@H](N)[C@@H](O[C@H]2O[C@H](CN)[C@@H](O)[C@H](O)[C@H]2O)[C@H](O)[C@H]1O[C@H]1O[C@H](CO)[C@@H](O)[C@H](N)[C@H]1O [AMK, amikacin] | S | S | S | S | S
C[C@H]1[C@H](NC(=O)/C(=N\OC(C)(C)C(=O)O)c2csc(N)n2)C(=O)N1S(=O)(=O)O [ATM, aztreonam] |  |  |  | S | 
CC(C)(O/N=C(\C(=O)N[C@@H]1C(=O)N2C(C(=O)[O-])=C(C[n+]3ccccc3)CS[C@H]12)c1csc(N)n1)C(=O)O [CAZ, ceftazidime] | S |  | R | S | S
CCN1CCN(C(=O)N[C@@H](C(=O)N[C@@H]2C(=O)N3C(C(=O)O)=C(CSc4nnnn4C)CS[C@H]23)c2ccc(O)cc2)C(=O)C1=O [CFP, cefoperazone] |  |  |  | S | 
O=C(N[C@H](CO)[C@H](O)c1ccc([N+](=O)[O-])cc1)C(Cl)Cl [CHL, chloramphenicol] | I |  | S |  | R
CO/N=C(\C(=O)N[C@@H]1C(=O)N2C(C(=O)O)=C(CSc3nc(=O)c(=O)[nH]n3C)CS[C@H]12)c1csc(N)n1 [CRO, ceftriaxone] | S |  | R | R | R
CO/N=C(\C(=O)N[C@@H]1C(=O)N2C(C(=O)O)=C(COC(C)=O)CS[C@H]12)c1csc(N)n1 [CTX, cefotaxime] | S |  | R | S | R
CO/N=C(\C(=O)N[C@@H]1C(=O)N2C(C(=O)O)=C(COC(N)=O)CS[C@H]12)c1ccco1 [CXM, cefuroxime] | S |  | R | R | R
Cc1nnc(SCC2=C(C(=O)O)N3C(=O)[C@@H](NC(=O)Cn4cnnn4)[C@H]3SC2)s1 [CZO, cefazolin] | S |  | R |  | R
CC[C@H]1OC(=O)[C@H](C)[C@@H](O[C@H]2C[C@@](C)(OC)[C@@H](O)[C@H](C)O2)[C@H](C)[C@@H](O[C@@H]2O[C@H](C)C[C@H](N(C)C)[C@H]2O)[C@](C)(O)C[C@@H](C)C(=O)[C@H](C)[C@@H](O)[C@]1(C)O [ERY, erythromycin] |  | R |  |  | 
CO/N=C(\C(=O)N[C@@H]1C(=O)N2C(C(=O)[O-])=C(C[N+]3(C)CCCC3)CS[C@H]12)c1csc(N)n1 [FEP, cefepime] | S |  | R | S | S
CO[C@@]1(NC(=O)Cc2cccs2)C(=O)N2C(C(=O)O)=C(COC(N)=O)CS[C@@H]21 [FOX, cefoxitin] | S | S | R |  | S
C[C@H]1COc2c(N3CCN(C)CC3)c(F)cc3c(=O)c(C(=O)O)cn1c23 [LEV, left-handed oxygen fluorine] |  |  |  | S | 
CCn1cc(C(=O)O)c(=O)c2cc(F)c(N3CCNCC3)cc21 [NOR, norfloxacin] |  |  |  | S | 
Cc1onc(-c2ccccc2)c1C(=O)N[C@@H]1C(=O)N2[C@@H]1SC(C)(C)[C@@H]2C(=O)O [OXA, oxacillin] |  | S |  |  | 
CCN1CCN(C(=O)N[C@@H](C(=O)N[C@@H]2C(=O)N3[C@@H]2SC(C)(C)[C@@H]3C(=O)O)c2ccccc2)C(=O)C1=O [PIP, piperacillin] | I |  | R | S | R
CO[C@H]1/C=C/O[C@@]2(C)Oc3c(C)c(O)c4c(O)c(c(/C=N/N5CCN(C)CC5)c(O)c4c3C2=O)NC(=O)/C(C)=C\C=C\[C@H](C)[C@H](O)[C@@H](C)[C@@H](O)[C@@H](C)[C@H](OC(C)=O)[C@@H]1C [RIF, rifampin] |  | S |  |  | 
NC[C@H]1O[C@H](O[C@H]2[C@H](O)[C@@H](O[C@H]3O[C@H](CO)[C@@H](O)[C@H](N)[C@H]3O)[C@H](N)C[C@@H]2N)[C@H](N)C[C@@H]1O [TOB, tobramycin] |  |  |  | S | 
CN[C@H](CC(C)C)C(=O)N[C@H]1C(=O)N[C@@H](CC(N)=O)C(=O)N[C@H]2C(=O)N[C@H]3C(=O)N[C@H](C(=O)N[C@H](C(=O)O)c4cc(O)cc(O)c4-c4cc3ccc4O)[C@H](O)c3ccc(c(Cl)c3)Oc3cc2cc(c3O[C@@H]2O[C@H](CO)[C@@H](O)[C@H](O)[C@H]2O[C@H]2C[C@](C)(N)[C@H](O)[C@H](C)O2)Oc2ccc(cc2Cl)[C@H]1O [VAN, vancomycin] |  | S |  |  | 
amoxicillin/clavulanic acid [AMC] | S |  | I |  | I
ampicillin/sulbactam [SAM] |  | S |  | R | 
gentamicin | S | S | R | S | R
penicillin [PNE] |  | R |  |  | 
piperacillin/tazobactam [TZP] | S |  | I | S | I
sulperazon [CLS] |  |  |  | S | 
ticarcillin/clavulanic acid [TIM] |  |  |  | S | 
trimethoprim-sulfamethoxazole [SXT] | R | S | R |  | R
